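Method: 48-hour compound exposure of cells in 96-well plates, five concentrations, linear interpolation of endpoints. The concentration for 50% growth inhibition is given as GI50.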 The source made the active and inactive calls. Cut-off read from the data, not from the text of the source: active = GI50 up to about 1.1 µM and inactive = higher.
How the values were obtained:
Experiment in all cases: NCI anticancer screen, dose series, 48 h
MDA-N = test system: MDA-N
MDA-MB-231 = test system: MDA-MB-231
DU-145 = test system: DU-145
A498 = test system: A498
SF-295 = test system: SF-295
Malme-3M = test system: Malme-3M
NCI-H522 = test system: NCI-H522
MDA-MB-435 = test system: MDA-MB-435
MOLT-4 = test system: MOLT-4
U-251 = test system: U-251
SK-MEL-5 = test system: SK-MEL-5
UACC-257 = test system: UACC-257
SNB-75 = test system: SNB-75
PC-3 = test system: PC-3
SK-MEL-28 = test system: SK-MEL-28
EKVX = test system: EKVX
ACHN = test system: ACHN
SF-539 = test system: SF-539
HCT-15 = test system: HCT-15
SF-268 = test system: SF-268

SMILES	GI50 (MDA-N)	GI50 (MDA-MB-231)	GI50 (DU-145)	GI50 (A498)	GI50 (SF-295)	GI50 (Malme-3M)	GI50 (NCI-H522)	GI50 (MDA-MB-435)	GI50 (MOLT-4)	GI50 (U-251)	GI50 (SK-MEL-5)	GI50 (UACC-257)	GI50 (SNB-75)	GI50 (PC-3)	GI50 (SK-MEL-28)	GI50 (EKVX)	GI50 (ACHN)	GI50 (SF-539)	GI50 (HCT-15)	GI50 (SF-268)
C=CCC1=CC2(OC)C(=O)C(OC)(OC)C1C1C(OC)(OC)C(=O)C(OC)=CC12CC=C (stereo not given)	> 100 µM (inactive)	> 100 µM (inactive)	> 100 µM (inactive)	> 100 µM (inactive)	> 100 µM (inactive)	> 100 µM (inactive)	> 100 µM (inactive)	> 100 µM (inactive)	> 100 µM (inactive)	> 100 µM (inactive)	> 100 µM (inactive)	> 100 µM (inactive)	> 100 µM (inactive)	> 100 µM (inactive)	> 100 µM (inactive)	> 100 µM (inactive)	> 100 µM (inactive)	> 100 µM (inactive)	> 100 µM	> 100 µM (inactive)
CCOc1ccc(C2c3[nH]c4ccccc4c3CCN2C(=O)c2cccs2)cc1 (stereo not given)	6.55 µM (inactive)	9.33 µM (inactive)	68.9 µM (inactive)	7.4 µM (inactive)	6.03 µM (inactive)	88.5 µM (inactive)	9.79 µM (inactive)	6.61 µM (inactive)	2.65 µM (inactive)	4.07 µM (inactive)	5.75 µM (inactive)	17.3 µM (inactive)	35.6 µM (inactive)	4.59 µM (inactive)	> 100 µM (inactive)	7.35 µM (inactive)	44.5 µM (inactive)	3.51 µM (inactive)	1.74 µM	52.4 µM (inactive)
C[n+]1cc2cc(O)c(O)cc2c2ccc3cc(O)c(O)cc3c21.c1ccncc1	3.25 µM (inactive)	2.79 µM (inactive)	3.57 µM (inactive)	2.51 µM (inactive)	3.39 µM (inactive)	2.59 µM (inactive)	0.617 µM (active)	2.46 µM (inactive)	0.912 µM (active)	1.6 µM (inactive)	3.24 µM (inactive)	4.25 µM (inactive)	3.31 µM (inactive)	3.37 µM (inactive)	4.66 µM (inactive)	3.37 µM (inactive)	2.69 µM (inactive)	2.62 µM (inactive)	2.47 µM	2.18 µM (inactive)
COc1cccc(C[C@H]2COC(=O)[C@]2(O)Cc2cccc(OC)c2)c1	> 100 µM (inactive)	> 100 µM (inactive)	> 100 µM (inactive)	> 100 µM (inactive)	83 µM (inactive)	60.5 µM (inactive)	55.7 µM (inactive)	> 100 µM (inactive)	53.1 µM (inactive)	> 100 µM (inactive)	50.9 µM (inactive)	> 100 µM (inactive)	> 100 µM (inactive)	> 100 µM (inactive)	> 100 µM (inactive)	26.5 µM (inactive)	> 100 µM (inactive)	> 100 µM (inactive)	> 100 µM	< 0.01 µM (active)
COC12c3ccccc3-c3ccccc3C1[C@H]1C(=O)OC(=O)[C@H]12 (stereo not given in full)	> 10 µM (inactive)	> 10 µM (inactive)	> 10 µM (inactive)	> 10 µM (inactive)	> 10 µM (inactive)	> 10 µM (inactive)	> 10 µM (inactive)	> 10 µM (inactive)	> 10 µM (inactive)	> 10 µM (inactive)	> 10 µM (inactive)	> 10 µM (inactive)	> 10 µM (inactive)	> 10 µM (inactive)	> 10 µM (inactive)	> 10 µM (inactive)	> 10 µM (inactive)	> 10 µM (inactive)	> 10 µM	> 10 µM (inactive)
CC(C)(C)c1ccc(-c2nnc(SCc3ccc(Cl)cc3)n2-c2cccc(C(F)(F)F)c2)cc1	24.2 µM (inactive)	> 69 µM (inactive)	> 85.3 µM (inactive)	31.1 µM (inactive)	8.43 µM (inactive)	29.4 µM (inactive)	4.39 µM (inactive)	11.9 µM (inactive)	3.78 µM (inactive)	8.85 µM (inactive)	14 µM (inactive)	9.95 µM (inactive)	27.5 µM (inactive)	6.98 µM (inactive)	> 78.9 µM (inactive)	8.51 µM (inactive)	20.3 µM (inactive)	54.8 µM (inactive)	8.73 µM	25 µM (inactive)
C[C@H](CCC(=O)NCC(=O)O)[C@H]1CC[C@H]2[C@@H]3[C@H](O)C[C@@H]4C[C@H](O)CC[C@]4(C)[C@H]3CC[C@]12C	> 100 µM (inactive)	> 100 µM (inactive)	> 100 µM (inactive)	> 100 µM (inactive)	> 100 µM (inactive)	71.6 µM (inactive)	> 100 µM (inactive)	> 100 µM (inactive)	> 100 µM (inactive)	> 100 µM (inactive)	> 100 µM (inactive)	> 100 µM (inactive)	0.75 µM (active)	> 100 µM (inactive)	> 100 µM (inactive)	> 100 µM (inactive)	> 100 µM (inactive)	> 100 µM (inactive)	> 100 µM	> 100 µM (inactive)
Clc1c(Cl)c(Cl)c2c(nnn2C2CCCO2)c1Cl (stereo not given)	27.7 µM (inactive)	43.5 µM (inactive)	51.5 µM (inactive)	27.5 µM (inactive)	36.9 µM (inactive)	31.3 µM (inactive)	23.8 µM (inactive)	34.1 µM (inactive)	23.2 µM (inactive)	33.8 µM (inactive)	40.1 µM (inactive)	35.6 µM (inactive)	12.9 µM (inactive)	39.2 µM (inactive)	–	22.3 µM (inactive)	–	30.7 µM (inactive)	28.4 µM	29.8 µM (inactive)
O=[N+]([O-])c1nccn1CCCNc1c2ccccc2[n+]([O-])c2ccccc12	> 100 µM (inactive)	> 100 µM (inactive)	> 100 µM (inactive)	> 100 µM (inactive)	> 100 µM (inactive)	> 100 µM (inactive)	> 100 µM (inactive)	> 100 µM (inactive)	> 100 µM (inactive)	> 100 µM (inactive)	> 100 µM (inactive)	> 100 µM (inactive)	> 100 µM (inactive)	> 100 µM (inactive)	> 100 µM (inactive)	> 100 µM (inactive)	> 100 µM (inactive)	> 100 µM (inactive)	> 100 µM	> 100 µM (inactive)
Cc1nc2c(C)c3c([nH]c4ccc(Cl)cc43)c(C)c2c(O)c1C	6.73 µM (inactive)	2.44 µM (inactive)	5.71 µM (inactive)	15.3 µM (inactive)	5.89 µM (inactive)	8.43 µM (inactive)	4.16 µM (inactive)	6.34 µM (inactive)	1.63 µM (inactive)	5.73 µM (inactive)	11.8 µM (inactive)	13.9 µM (inactive)	16.8 µM (inactive)	5.89 µM (inactive)	10.8 µM (inactive)	22 µM (inactive)	2.75 µM (inactive)	6.21 µM (inactive)	3.21 µM	16.1 µM (inactive)
CCOC(=O)c1ccc(Nc2nc3ccc(C(F)(F)F)cc3nc2C(=O)OCC)cc1	> 100 µM (inactive)	> 100 µM (inactive)	> 100 µM (inactive)	> 100 µM (inactive)	> 100 µM (inactive)	> 100 µM (inactive)	> 100 µM (inactive)	> 100 µM (inactive)	> 100 µM (inactive)	> 100 µM (inactive)	> 100 µM (inactive)	> 100 µM (inactive)	95.3 µM (inactive)	> 100 µM (inactive)	> 100 µM (inactive)	> 100 µM (inactive)	> 100 µM (inactive)	> 100 µM (inactive)	> 100 µM	> 100 µM (inactive)
CCN(CC)/C(Sc1ccccc1)=C(\C(Cl)=C(Cl)Cl)[N+](=O)[O-]	16.9 µM (inactive)	24.2 µM (inactive)	16.9 µM (inactive)	21.1 µM (inactive)	17.6 µM (inactive)	18 µM (inactive)	12.6 µM (inactive)	13.5 µM (inactive)	6.93 µM (inactive)	–	14.1 µM (inactive)	19.1 µM (inactive)	20.4 µM (inactive)	17.2 µM (inactive)	17.9 µM (inactive)	15.6 µM (inactive)	17.1 µM (inactive)	17.3 µM (inactive)	14.9 µM	21.4 µM (inactive)
Cc1ccc(C(=O)Nc2ccc(CP(=O)(O)O)cc2CP(=O)(O)O)cc1NC(=O)Nc1cc(C(=O)Nc2ccc(CP(=O)(O)O)cc2CP(=O)(O)O)ccc1C	> 100 µM (inactive)	> 100 µM (inactive)	> 100 µM (inactive)	> 100 µM (inactive)	> 100 µM (inactive)	> 100 µM (inactive)	64.9 µM (inactive)	> 100 µM (inactive)	–	> 100 µM (inactive)	> 100 µM (inactive)	> 100 µM (inactive)	> 100 µM (inactive)	> 100 µM (inactive)	> 100 µM (inactive)	> 100 µM (inactive)	> 100 µM (inactive)	> 100 µM (inactive)	> 100 µM	> 100 µM (inactive)
Cc1sccc1C(=S)Nc1ccc(Cl)c(/C=N/OC(C)(C)C)c1	13.3 µM (inactive)	13.3 µM (inactive)	14.6 µM (inactive)	23.8 µM (inactive)	16.7 µM (inactive)	15.1 µM (inactive)	12 µM (inactive)	21.7 µM (inactive)	7.6 µM (inactive)	21.6 µM (inactive)	13.2 µM (inactive)	17 µM (inactive)	21.1 µM (inactive)	15.4 µM (inactive)	26.6 µM (inactive)	15.8 µM (inactive)	–	31.5 µM (inactive)	15 µM	18.3 µM (inactive)

Source: ChEMBL document CHEMBL1201862, “PubChem BioAssay data set” (2004)
